Results as given in US9868935B2, “Composition and method of stem cells for preservation of cardiac tissue” (CRIOESTAMINAL, SAÚDE E TECNOLOGIA, SA., priority 2012, dated 2018).

What was measured:
CD34+ cells = experiment: Antagonist pretreatment and LPA-induced CD34+ cell survival in hypoxia (Annexin V/PI FACS); assay type: cell-based, human; conditions: hypoxia 24 h; for effect of antagonist on pro-survival effect of LPA: antagonist 1 h pretreatment + LPA 100 μM
Protocol: FIG. 5—LPA induces CD34+ cell survival mainly through peroxisome proliferator-activator receptor (PPAR). Cells were cultured in serum free medium with LPA. Cells were pretreated with Rho kinase inhibitor (Y-2762, 50 μM), mitogen-activated protein kinase (MAPK) inhibitor (PD98059, 60 μM), LPA1- and LPA3-specific inhibitor (Ki16425, 10 μM), or peroxisome proliferator-activator receptor g (PPARg) inhibitor (GW9662, 50 μM) for 1 hour before hypoxia and cell medium containing LPA (100 μM) for 24 h. Cells without any pretreatment and cultured in serum free medium with or without LPA, in hypoxia for 24 h, were used as positive and negative controls, respectively. Results are average±SEM (n=3-6). * Denote statistical significance: *P<0.05, **P<0.01, […].
The biological roles of LPA are diverse and include developmental, physiological, and pathophysiological effects (Lin, M. E., D. R. Herr, and J. Chun, Lysophosphatidic acid (LPA) receptors: signaling properties and disease relevance. Prostaglandins Other Lipid Mediat, 2010. 91(3-4): p. 130-8). To date up to five LPA receptors (LPARs) have been identified: LPA1-LPA5 (Choi, J. W., et al., LPA receptors: subtypes and biological actions. Annu Rev Pharmacol Toxicol, 2010. 50: p. 157-86). The receptors are G protein-coupled receptors (GPCRs) and their presence can be found in multiple tissues. LPA1, LPA2 and LPA3 are widely expressed in most tissues (Ishii, I., et al., Functional comparisons of the lysophosphatidic acid receptors, LP(A1)/VZG-1/EDG-2, LP(A2)/EDG-4, and LP(A3)/EDG-7 in neuronal cell lines using a retrovirus expression system. Mol Pharmacol, 2000. 58(5): p. 895-902). LP4 is expressed in specific organs, such as the pancreas, ovaries and thymus (Lee, C. W., et al., LPA(4)/GPR23 is a lysophosphatidic acid (LPA) receptor utilizing G(s)-, G(q)/G(i)-mediated calcium signaling and G(12/13)-mediated Rho activation. J Biol Chem, 2007. 282(7): p. 4310-7). LPA5 is expressed at low levels in multiple tissues (Lee, C. W., et al., GPR92 as a new G12/13- and Gq-coupled lysophosphatidic acid receptor that increases cAMP, LPA5. J Biol Chem, 2006. 281(33): p. 23589-97). To identify the receptor that is mediating the pro-survival effect of LPA (100 μM), was used Ki16425 (10 μM), an LPA1- and LPA3-specific antagonist, and GW9662 (50 μM), an antagonist of peroxisome proliferator-activator receptor γ (PPAR γ). Studies indicate that LPA has a high affinity by this last receptor (McIntyre, T. M., et al., Identification of an intracellular receptor for lysophosphatidic acid (LPA): LPA is a transcellular PPARgamma agonist. Proc Natl Acad Sci USA, 2003. 100(1): p. 131-6; Gustin, C., M. Van Steenbrugge, and M. Raes, LPA modulates monocyte migration directly and via LPA-stimulated endothelial cells. Am J Physiol Cell Physiol, 2008. 295(4): p. C905-14). This approach was complemented, by inhibiting downstream targets of the receptors including Rho kinase and mitogen-activated protein kinase (MAPK) using Y-2762 (50 μM) and PD98059 (60 μM) antagonists, respectively. It is known that all LPARs couple with and activate G proteins, which in turn activate MAPK (LPA1, LPA2, LPA3 and LPA4) and Rho kinase (LPA1, LPA2, LPA4 and LPA5) (Choi, J. W., et al., LPA receptors: subtypes and biological actions. Annu Rev Pharmacol Toxicol, 2010. 50: p. 157-86). Cells were treated for 1 h in X-Vivo medium containing a specific antagonist followed by culture under hypoxia conditions for 24 h. Cell survival was assessed by FACS analysis after Annexin V/PI staining. […] The number of viable cells decreased from 77% (+LPA) to 67% (P<0.01, n=19). […] Because the two signaling pathways are downstream targets of different LPARs (see above), this might indicate different contributions of LPARs in the survival of CD34+ cells.

[1] = test system: human umbilical cord blood derived CD34+ cells; experiment: CD34+ cell survival in hypoxia and serum deprived conditions (Annexin V/PI flow cytometry); assay type: cell-based; conditions: hypoxia 0.5% O2, 24 h, serum free; P<0.001
Protocol: In an embodiment, UCB CD34+ cells (1×10^^6 cells/mL) were incubated in X-Vivo media (Lonza) in a hypoxia chamber for 24 h (0.5% of O2 and 5% of CO2), in the presence or absence of pharmacological drugs, for further assessment of cell survival/apoptosis and necrosis by FACS analysis of the expression of annexin V and PI respectively. Preferably, cells were pretreated with the respective drugs for 1 hour before hypoxia, and treatment maintained during hypoxia.
In a preferred embodiment, to identify molecules that promote CD34+ cell survival in hypoxia and serum deprived conditions we developed an assay that uses human umbilical cord blood derived CD34+ cells (2×10^^5 cells per well of a 96-well plate) suspended in X-Vivo medium (used in clinical trials (Schachinger, V., et al., Intracoronary bone marrow-derived progenitor cells in acute myocardial infarction. N Engl J Med, 2006. 355(12): p. 1210-21)) and incubated in a hypoxia chamber at 0.5% O2, at 37° C., for 24 h. Some of the drugs selected have been approved by FDA for the treatment of cardiovascular diseases (e.g. Nebivolol Lombardo, R. M., et al., Effects of nebivolol versus carvedilol on left ventricular function in patients with chronic heart failure and reduced left ventricular systolic function. Am J Cardiovasc Drugs, 2006. 6(4): p. 259-63; Ibersatan Massie, B. M., et al., Irbesartan in patients with heart failure and preserved ejection fraction. N Engl J Med, 2008. 359(23): p. 2456-67), others are being evaluated in pre-clinical/clinical assays to improve heart function in patients/models with heart failure (e.g. INO1001 (Szabo, G., et al., INO-1001 a novel poly(ADP-ribose) polymerase (PARP) inhibitor improves cardiac and pulmonary function after crystalloid cardioplegia and extracorporal circulation. Shock, 2004. 21(5): p. 426-32); erythropoietin (Belonje, A. M., et al., Effects of erythropoietin after an acute myocardial infarction: rationale and study design of a prospective, randomized, clinical trial (HEBE III). Am Heart J, 2008. 155(5): p. 817-22); melatonin (Chen, Z., et al., Protective effect of melatonin on myocardial infarction. Am J Physiol Heart Circ Physiol, 2003. 284(5): p. H1618-24); VX-702 (Ma, X. L., et al., Inhibition of p38 mitogen-activated protein kinase decreases cardiomyocyte apoptosis and improves cardiac function after myocardial ischemia and reperfusion. Circulation, 1999. 99(13): p. 1685-91)), others are natural substances found in the human body (LPA). Cell viability was evaluated by flow cytometry using Annexin V/propidium iodide (PI) staining. Annexin V is a phospholipid-binding protein with specificity for phospatidyl serine, one of the earliest makers of cellular transition to an apoptotic state. This phospholipid is translocated from the inner to the outer leaflet of the plasma membrane (Koopman, G., et al., Annexin V for flow cytometric detection of phosphatidylserine expression on B cells undergoing apoptosis. Blood, 1994. 84(5): p. 1415-20.). PI enters in necrotic cells and binds to double-stranded nucleic acids, but is excluded from cells with normal integrity. According to FIG. 1, untreated CD34+ cells show a very poor survival, with only ˜31% of viable cells, ˜31% of apoptotic cells (Annexin V+/PI−) being the majority of the cells ˜39% at the necrotic stage (PI+). […] LPA (10 μM) was the drug with the highest pro-survival effect (˜69% of viable cells) and therefore further studied (FIGS. 1 and 2A).
Importantly, the percentage of viable cells in CD34+ treated with 1 μM of LPA and cultured under hypoxia conditions is similar to untreated cells cultured under normoxia conditions. The pro-survival effect of LPA decreases as a function of hypoxia time (FIG. 2C). The percentage of viable cells in LPA-treated CD34+ cells decreased from 78% at day 1 to 40% at day 3.

O=C(Nc1ccccc1)c1cc([N+](=O)[O-])ccc1Cl [GW9662]
number of viable cells induced by LPA after antagonist (CD34+ cells; GW9662 50 μM 1 h pretreatment + LPA 100 μM, P<0.001, n=11): ~53%
effect of antagonist on pro-survival effect of LPA (CD34+ cells): did not block totally the pro-survival effect of LPA

Cc1noc(-c2ccc(CSCCC(=O)O)cc2)c1NC(=O)OC(C)c1ccccc1Cl (stereo not drawn) [Ki16425]
number of viable cells induced by LPA after antagonist (CD34+ cells; Ki16425 10 μM 1 h pretreatment + LPA 100 μM, P<0.01, n=19): 67%
effect of antagonist on pro-survival effect of LPA (CD34+ cells): relatively small effect

COc1cccc(-c2cc(=O)c3ccccc3o2)c1N [PD98059]
effect of antagonist on pro-survival effect of LPA (CD34+ cells): suppressed at higher levels the pro-survival effect of LPA than the inhibition of Rho kinase signaling pathway

CCCCC[C@H](O)/C=C/[C@H]1[C@H](O)CC(=O)[C@@H]1C/C=C\CCCC(=O)O [prostaglandin E2, reference compound]
cell survival vs untreated cells [1]: improved significantly
